Test results: patent US5770573A, “CS-1 peptidomimetics, compositions and methods of using the same” (Cytel Corporation, priority 1995, dated 1998)
Like-named read-outs stand apart in the source and are kept apart here. Numbered stars: 1 amine (or outer) side, 2 acyl side, 3 side chain; on linkers, the order of the positions; unused ones are H or OH. Square brackets hold non-standard residues; d marks the D form. Peptide text beside a SMILES is read from it. * marks the point of attachment. ξ: configuration not given here. Phe(4-NO2) = N[C@@H](Cc1ccc([N+](=O)[O-])cc1)C(=O)O; Biotin = O=C1N[C@H]2[C@H](CS[C@H]2CCCCC(=O)*)N1; NHOctadecyl = CCCCCCCCCCCCCCCCCCN*; Quinaldoyl = O=C(c1ccc2ccccc2n1)*; Cha = N[C@@H](CC1CCCCC1)C(=O)O; ξAtc = NC1(C(=O)O)CCc2ccccc2C1; Tle = CC(C)(C)[C@H](N)C(=O)O; Nicotinoyl = O=C(c1cccnc1)*; X8 = CCCCCCCCCCCCCCCCCCO*; Nle = CCCC[C@H](N)C(=O)O; Pyrrolidide = C1CCN(*)C1; Nva = CCC[C@H](N)C(=O)O; PhAc = O=C(Cc1ccccc1)*; CO = O=C([*:1])[*:2]; NHBn = c1ccc(CN*)cc1; NHPh = c1ccc(N*)cc1; Ahx = NCCCCCC(=O)O; OtBu = CC(C)(C)O*; tBu = CC(C)(C)*; X6 = O=C(O)CO*; NHBu = CCCCN*

Target: VLA-4 (Homo sapiens, UniProt P05556+P13612)
Sequence (P13612 34-1032): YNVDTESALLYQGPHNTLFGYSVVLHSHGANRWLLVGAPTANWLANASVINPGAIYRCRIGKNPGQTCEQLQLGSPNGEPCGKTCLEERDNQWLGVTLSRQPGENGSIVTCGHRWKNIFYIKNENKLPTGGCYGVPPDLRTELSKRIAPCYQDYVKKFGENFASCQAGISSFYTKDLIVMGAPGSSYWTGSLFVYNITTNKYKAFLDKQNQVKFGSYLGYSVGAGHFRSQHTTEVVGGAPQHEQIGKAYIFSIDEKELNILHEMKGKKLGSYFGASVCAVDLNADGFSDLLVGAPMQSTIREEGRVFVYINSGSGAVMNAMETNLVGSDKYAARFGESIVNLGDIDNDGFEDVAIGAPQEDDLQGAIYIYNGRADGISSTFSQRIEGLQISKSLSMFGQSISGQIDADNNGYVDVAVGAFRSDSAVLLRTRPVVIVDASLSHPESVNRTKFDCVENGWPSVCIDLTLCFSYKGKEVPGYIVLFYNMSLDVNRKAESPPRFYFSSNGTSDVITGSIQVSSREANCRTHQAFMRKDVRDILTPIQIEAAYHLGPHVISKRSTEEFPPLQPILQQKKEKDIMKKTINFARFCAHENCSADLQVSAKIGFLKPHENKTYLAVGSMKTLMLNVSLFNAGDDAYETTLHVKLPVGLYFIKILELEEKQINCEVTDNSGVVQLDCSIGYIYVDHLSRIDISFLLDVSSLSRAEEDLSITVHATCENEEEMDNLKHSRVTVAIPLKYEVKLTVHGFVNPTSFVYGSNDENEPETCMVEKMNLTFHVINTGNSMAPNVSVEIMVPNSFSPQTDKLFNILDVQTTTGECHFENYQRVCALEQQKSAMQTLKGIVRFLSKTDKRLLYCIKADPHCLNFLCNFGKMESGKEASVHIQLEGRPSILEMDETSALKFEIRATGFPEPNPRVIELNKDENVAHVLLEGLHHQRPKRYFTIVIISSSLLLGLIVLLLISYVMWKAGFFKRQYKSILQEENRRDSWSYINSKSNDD
Sequence (P05556 21-798): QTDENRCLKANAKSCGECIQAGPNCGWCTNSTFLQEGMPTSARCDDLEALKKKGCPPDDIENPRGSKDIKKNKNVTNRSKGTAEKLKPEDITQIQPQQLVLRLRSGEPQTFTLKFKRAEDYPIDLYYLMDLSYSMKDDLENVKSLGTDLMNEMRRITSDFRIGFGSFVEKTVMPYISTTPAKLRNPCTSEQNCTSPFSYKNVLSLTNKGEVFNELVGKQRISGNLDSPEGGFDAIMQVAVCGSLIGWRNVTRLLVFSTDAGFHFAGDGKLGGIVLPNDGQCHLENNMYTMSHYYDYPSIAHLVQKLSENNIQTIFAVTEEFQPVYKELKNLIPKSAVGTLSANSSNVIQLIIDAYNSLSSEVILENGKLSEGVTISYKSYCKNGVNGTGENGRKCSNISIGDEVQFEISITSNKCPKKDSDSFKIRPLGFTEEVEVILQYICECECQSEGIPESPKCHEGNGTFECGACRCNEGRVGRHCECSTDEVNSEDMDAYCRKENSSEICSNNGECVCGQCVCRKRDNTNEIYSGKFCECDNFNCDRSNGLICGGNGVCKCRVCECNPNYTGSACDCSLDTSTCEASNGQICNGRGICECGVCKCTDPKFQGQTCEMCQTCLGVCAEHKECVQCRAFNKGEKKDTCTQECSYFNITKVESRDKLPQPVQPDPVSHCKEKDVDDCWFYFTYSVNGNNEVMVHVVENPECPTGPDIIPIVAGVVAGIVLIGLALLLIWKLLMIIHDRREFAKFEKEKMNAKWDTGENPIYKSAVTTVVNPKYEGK
Assay: In vitro binding inhibition of 51Cr-labeled Jurkat cells to solid phase-bound CS-1 compound (SEQ ID NO:1)
Type: cell-based
Design: inflammatory cells that contain the VLA-4 receptor [Jurkat cells; host or cells: Jurkat (human T lymphoblastic line)
Description: Binding inhibition is measured here as a concentration of compound that inhibits one-half the binding between a standard number of Jurkat cells and a standard amount of CS-1 compound bound to the surface of a microtiter plate well. Those concentrations are conveniently expressed as IC50 values, smaller numbers indicating a lower concentration required to inhibit 50 percent binding and therefore greater potency. Further specifics of this assay are provided hereinafter.
Jurkat cells (ATCC TIB 152), a human T lymphoblastic line, labeled with ^51 chromium were used to assay in vitro binding inhibition provided by various compounds discussed herein.
The plates were prepared as follows: The 25-mer CS-1 compound (SEQ ID NO:1) dissolved at 0.5-1 μg/ml in a buffer of 0.1M NaHCO3 at pH 9.5 that also contained 10 μg/ml of bovine serum albumin (BSA) or a conjugate of the CS-1 compound linked to […] (CS-1-OVA) dissolved at 1-2.5 μg/ml in the same buffer was used as the substrate. Each well of the microtiter plates was coated with 50 μl of substrate or buffer alone for controls. The wells were permitted to dry out completely and were then rinsed twice with PBS at pH 7.4. Non-specific binding sites of each well were then blocked using 200 μl per well of RPMI/1 percent BSA for two hours at room temperature.
Jurkat cells (3-5×10^6 cells) were placed into a 15 ml Falcon™ round-bottom tube with a cap. The tube was centrifuged, and the extra medium was then removed.
Two hundred microliters of a ^51 Cr labeling solution were added to the centrifuged cells and maintained in contact with the cells for 90-120 minutes in a warm room. […] Longer contact times provide a greater amount of labeling but lower cell viability.
The labeled cells are washed with (i) complete medium, (ii) 1 mM EDTA/PBS and then (iii) RPM1/1 percent BSA free of serum components. The cells are centrifuged after each washing. The cells are finally resuspended in serum-free RPMI/1 percent BSA at a concentration of 1×10^6 viable cells/ml, which provides a concentration that is diluted by one-half in the assay.
Inhibitor compounds are prepared as stock solutions at 20 mg/ml in DMSO in 1.5 ml cryogenic screwcap vials, and were stored at -70° C. Using Flow™ round-bottom or V-bottom microtiter plates, the inhibitor compounds were prepared at twice the assay concentration in RPMI/1 percent BSA at 60 μl/well.
Four initial dilutions were typically used.
The ^51 Cr-labeled cells ([…] at 60 μl/well) were then admixed with the diluted compound solutions. The admixtures were maintained at room temperature (about 22° C.) for 30 minutes.
One hundred microliters of each inhibitor compound/cell admixture were transferred to the substrate-coated wells. This was done in triplicate for each dilution. The resulting plates were incubated for 30 minutes at 37° C. and then washed gently three times with RPMI/1 percent BSA at 200 μl/well. Binding was observed microscopically, particularly after the second wash.
The bound cells were then lysed by the addition of a 0.5 percent solution of sodium dodecylsulfate in water at 100 μl/well. The resulting solutions were then processed for counting and calculation of IC50 values following usual procedures.
The data of Table 1 are normalized to the binding of SEQ ID NO: 3. […] Multiple assays for the same compound were averaged.

[1] = binding inhibition potency relative to standard compound of SEQ ID NO:3 = 1 (normalized IC50), about one-tenth or less assigned zero
[2] = relative to SEQ ID NO:3 = 1, potency before the prodrug compound is enzymatically converted to an active form

SMILES	Relative Potency	Relative Potency [1]	other results
CCCC[C@H](NC(=O)[C@@H](N)[C@@H](C)CC)C(=O)N[C@@H](CC(=O)O)C(=O)N[C@H](C(=O)N1CCC[C@H]1C(N)=O)C(C)C [926.09] (H-I[Nle]DVP-NH2)	.41	–	–
CC(C)C[C@H](NC(=O)/C=C/c1ccccc1)C(=O)N[C@@H](CC(=O)O)C(=O)N[C@H](C(=O)N1CCC[C@@H]1C(N)=O)C(C)C [896.41]	–	1.97	–
CC(C)C[C@H](NC(=O)Cc1ccccc1)C(=O)N[C@@H](CC(=O)O)C(=O)N[C@@H](Cc1ccccc1)C(=O)N1CCCC1 [951.15] (PhAc-Leu-Asp-Phe-Pyrrolidide)	–	121	–
CC(C)C[C@H](NC(=O)[C@H](Cc1ccccc1)NC(=O)CCCCCNC(=O)CCCC[C@@H]1SC[C@@H]2NC(=O)N[C@@H]21)C(=O)N[C@@H](CC(=O)O)C(=O)N[C@@H](Cc1ccccc1)C(=O)N1CCC[C@@H]1C(N)=O [951.13] ({Biotin-Ahx}-FLDF[dP]-NH2)	–	–	Relative Potency (prodrug compound): 74.5
COc1ccccc1N1CC[C@H](NC(=O)[C@H](CC(=O)O)NC(=O)[C@H](CC(C)C)NC(=O)Cc2ccccc2)C1=O [1057.04]	–	3.13	–
CC(C)C[C@H](NC(=O)c1ccc2ccccc2n1)C(=O)N[C@@H](CC(=O)O)C(=O)N[C@@H](Cc1ccccc1)C(=O)N1CCC[C@@H]1C(N)=O [951.06] (Quinaldoyl-LDF[dP]-NH2)	8.97	–	–
CC(C)C[C@H](NC(=O)[C@@H]1CCCN1)C(=O)N[C@@H](CC(=O)O)C(=O)N[C@@H](Cc1ccccc1)C(=O)N1CCC[C@@H]1C(N)=O [951.12] (H-PLDF[dP]-NH2)	61.8	–	–
CC(C)C[C@H](NC(=O)Cc1ccccc1)C(=O)N[C@@H](CC(=O)O)C(=O)N[C@@H](Cc1ccc(OC(C)(C)C)cc1)C(=O)OC(C)(C)C [1040.01] (PhAc-Leu-Asp-Tyr(tBu)-OtBu)	–	2.66	–
CC(C)C[C@H](NC(=O)Cc1ccccc1)C(=O)N[C@@H](CC(=O)O)C(=O)NC1Cc2ccccc2N(CC(C)C)C1=O (stereo partly shown) [997.10]	–	6.26	–
CC(C)CN(CC(C)C)C(=O)N[C@@H](CC(=O)O)C(=O)N[C@H](C(=O)N1CCCCC1)c1ccccc1 [1027.01]	.5	–	–
CCCCCCCCCCCCCCCCCCOC(=O)C[C@H](NC(=O)[C@H](CC(C)C)NC(=O)Cc1ccccc1)C(=O)N[C@@H](Cc1ccccc1)C(=O)N1CCC[C@@H]1C(N)=O [1068.12] (PhAc-LD(X8)F[dP]-NH2)	–	–	Relative Potency (prodrug compound) [2]: 0
CC(C)C[C@H](NC(=O)C12CC3CC(CC(C3)C1)C2)C(=O)N[C@@H](CC(=O)O)C(=O)N[C@H](C(=O)N1CCC[C@@H]1C(N)=O)C(C)C [896.50]	1.38	–	–
CC(C)C[C@H](NC(=O)Cc1ccccc1)C(=O)N[C@@H](CC(=O)O)C(=O)N[C@H](C(=O)N1CCC[C@@H]1C(N)=O)C(C)(C)C [896.56] (PhAc-LD[Tle][dP]-NH2)	–	1.72	–
CC(C)C[C@H](NC(=O)[C@H]1CCCN1)C(=O)N[C@@H](CC(=O)O)C(=O)N[C@@H](Cc1ccccc1)C(=O)N1CCC[C@@H]1C(N)=O [951.11] (H-[dP]LDF[dP]-NH2)	2.5	–	–
CC[C@H](C)[C@H](N)C(=O)N[C@@H](CC1CCCCC1)C(=O)N[C@@H](CC(=O)O)C(=O)N[C@@H](Cc1ccccc1)C(=O)N1CCC[C@@H]1C(N)=O [896.29] (H-I[Cha]DF[dP]-NH2)	2.27	–	–
CC(C)C[C@H](NC(=O)Nc1ccccc1)C(=O)N[C@@H](CC(=O)O)C(=O)N[C@@H](Cc1ccccc1)C(=O)N1CCC[C@@H]1C(N)=O [896.62] ({NHPh-CO}-LDF[dP]-NH2)	257	–	–
CCCCCCCCCCCCCCCCCCNC(=O)CCCCCNC(=O)[C@@H]1CCCN1C(=O)[C@H](Cc1ccccc1)NC(=O)[C@H](CC(=O)O)NC(=O)[C@H](CC(C)C)NC(=O)Cc1ccccc1 [Compound ID No. 1068.01, phenylacetyl-Leu-Asp-Phe-Pro-NH(CH2)5 C(O)NHC18 H37] (PhAc-LDFP[Ahx]-NHOctadecyl)	–	–	VLA-4 binding inhibition compared in words (compared with standard 10-mer of SEQ ID NO:3): binding inhibition similar to that exhibited by the standard 10-mer compound

SMILES	Relative Potency	Relative Potency [1]	other results
CC(C)C[C@@H](C(=O)N[C@@H](CC(=O)O)C(=O)N[C@@H](Cc1ccccc1)C(=O)N1CCCCC1)N1C(=O)N[C@@H](c2ccccc2)C1=O [1047.02]	3.13	–	–
CCC[C@H](NC(=O)[C@@H](N)[C@@H](C)CC)C(=O)N[C@@H](CC(=O)O)C(=O)N[C@H](C(=O)N1CCC[C@H]1C(N)=O)C(C)C [926.10] (H-I[Nva]DVP-NH2)	.13	–	–
CC(C)C[C@H](NC(=O)Cc1ccccc1)C(=O)N[C@@H](CC(=O)OCC(=O)O)C(=O)N[C@@H](Cc1ccccc1)C(=O)N1CCC[C@@H]1C(N)=O [1067.02] (PhAc-LD(X6)F[dP]-NH2)	–	–	Relative Potency (prodrug compound) [2]: .81
Cc1cccc(C(=O)N[C@@H](CC(C)C)C(=O)N[C@@H](CC(=O)O)C(=O)N[C@H](C(=O)N2CCC[C@@H]2C(N)=O)C(C)C)c1C [896.38]	6.57	–	–
CC(C)C[C@H](NC(=O)Cc1ccccc1)C(=O)N[C@@H](CC(=O)O)C(=O)N[C@@H](Cc1ccc([N+](=O)[O-])cc1)C(=O)N1CCC[C@@H]1C(N)=O [896.68] (PhAc-LD[Phe(4-NO2)][dP]-NH2)	–	39.9	–
NC(=O)[C@H]1CCCN1C(=O)[C@H](Cc1ccccc1)NC(=O)[C@H](CC(=O)O)NC(=O)CCCCC1CCSS1 (stereo partly shown) [1056.09]	–	1.1	–
CCCCCCCCCCCCCCCCCCNC(=O)CCCCCNC(=O)[C@@H]1CCCN1C(=O)[C@H](Cc1ccccc1)NC(=O)[C@H](CC(=O)O)NC(=O)[C@H](CC(C)C)NC(=O)Cc1ccccc1 [1068.01] (PhAc-LDFP[Ahx]-NHOctadecyl)	–	–	Relative Potency (prodrug compound) [2]: .91
CCCCNC(=O)[C@H](Cc1ccccc1)NC(=O)[C@H](CC(=O)O)NC(=O)[C@H](CC(C)C)NC(=O)Cc1ccccc1 [1051.03] (PhAc-Leu-Asp-Phe-NHBu)	–	2.82	–
CC(C)C[C@H](NC(=O)Cc1ccccc1)C(=O)N[C@@H](CC(=O)O)C(=O)NC1(C(=O)N2CCC[C@@H]2C(N)=O)CCc2ccccc2C1 (stereo partly shown) [896.65] (PhAc-LD[ξAtc][dP]-NH2)	–	1.25	–
CC(C)CC(C(=O)NCc1ccccc1)C(=O)N[C@@H](CC(=O)O)C(=O)N[C@@H](Cc1ccccc1)C(=O)N1CCCCC1 (stereo partly shown) [1034.02]	0	–	–
CC(C)C[C@H](NC(=O)[C@@H](N)Cc1ccccc1)C(=O)N[C@@H](CC(=O)O)C(=O)N[C@@H](Cc1ccccc1)C(=O)N1CCC[C@@H]1C(N)=O [896.27] (H-FLDF[dP]-NH2)	16.9	–	–
CC(C)C[C@@H](C(=O)N[C@@H](CC(=O)O)C(=O)N[C@@H](Cc1ccccc1)C(=O)N1CCC[C@@H]1C(N)=O)n1c(=O)[nH]c2ccccc2c1=O [896.63]	43.7	–	–
CC(C)C[C@H](NC(=O)Cc1ccccc1)C(=O)N[C@@H](CC(=O)O)C(=O)N[C@@H](Cc1ccccc1)C(=O)N1CCNCC1 [1051.02]	–	507	–
CC(C)COC(=O)N[C@@H](CC(=O)O)C(=O)N[C@@H](Cc1ccccc1)C(=O)N1CCCCC1 [1027.04]	0	–	–
CC(C)C[C@H](NC(=O)c1cccnc1)C(=O)N[C@@H](CC(=O)O)C(=O)N[C@@H](Cc1ccccc1)C(=O)N1CCC[C@@H]1C(N)=O [896.55] (Nicotinoyl-LDF[dP]-NH2)	105	–	–
CC(C)C[C@H](NC(=O)Cc1ccccc1)C(=O)N[C@@H](CC(=O)O)C(=O)NN(Cc1ccccc1)C(=O)C1CCCC1 [997.15]	–	1.28	–
CC(C)C[C@H](NC(=O)Cc1ccccc1)C(=O)N[C@@H](CC(=O)O)C(=O)NCc1ccccc1 [997.02] (PhAc-Leu-Asp-NHBn)	–	18.8	–
